Laboratory results from patent publication US5198424A, “Functionally active selectin-derived peptides” (Board of Regents of the University of Oklahoma, priority 1992, dated 1993).
Where two headings read alike, the source gives them in different places. Ends that are not written are not given here.

Key:
GMP-140 [1] = molecular target: T1, GMP-140 (Homo sapiens, UniProt P16109); assay: Neutrophil adhesion to purified GMP-140 immobilized on plastic wells (myeloperoxidase readout); format: cell-based; parameters: from tissue; host or cells: outdated human platelet packs (platelet lysate); settings: for % Bound (neutrophils bound to immobilized GMP-140 in the presence of GMP-140-derived peptide): peptide 1.5 mM, cells bound with control C-terminal peptide 761-777 normalized to 100%
T1 sequence (P16109 42-830): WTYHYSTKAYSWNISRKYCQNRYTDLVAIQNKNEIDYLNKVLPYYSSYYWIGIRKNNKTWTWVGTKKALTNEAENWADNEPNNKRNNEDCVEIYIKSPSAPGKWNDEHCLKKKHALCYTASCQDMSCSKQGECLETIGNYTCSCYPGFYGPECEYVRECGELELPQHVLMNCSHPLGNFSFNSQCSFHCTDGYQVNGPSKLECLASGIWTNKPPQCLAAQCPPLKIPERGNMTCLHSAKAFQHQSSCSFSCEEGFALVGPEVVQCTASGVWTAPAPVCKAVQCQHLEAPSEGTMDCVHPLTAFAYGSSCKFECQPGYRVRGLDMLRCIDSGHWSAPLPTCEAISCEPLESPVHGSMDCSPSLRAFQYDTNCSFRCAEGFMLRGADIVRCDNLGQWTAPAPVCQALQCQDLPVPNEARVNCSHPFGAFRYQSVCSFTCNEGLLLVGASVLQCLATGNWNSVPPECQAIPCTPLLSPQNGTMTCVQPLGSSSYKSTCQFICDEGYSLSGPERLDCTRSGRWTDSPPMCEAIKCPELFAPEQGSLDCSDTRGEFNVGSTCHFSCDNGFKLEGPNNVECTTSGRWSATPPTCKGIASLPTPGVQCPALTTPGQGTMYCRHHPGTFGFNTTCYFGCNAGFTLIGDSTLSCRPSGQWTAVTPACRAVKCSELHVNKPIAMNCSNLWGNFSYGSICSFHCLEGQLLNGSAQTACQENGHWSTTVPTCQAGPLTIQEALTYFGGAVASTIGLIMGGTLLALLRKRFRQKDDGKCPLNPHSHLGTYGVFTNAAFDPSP
Description: Peptides were screened for their ability to inhibit neutrophil adhesion to purified GMP-140 immobilized on plastic wells, using the assay described by Geng, et al., Nature 343, 757-760 (1990).
Human neutrophils are isolated from heparinized whole blood by density gradient centrifugation on Mono-Poly resolving media, Flow Laboratories. Neutrophil suspensions are greater than 98% pure and greater than 95% viable by trypan blue exclusion. For adhesion assays, neutrophils are suspended at a concentration of 2×10^6 cells/ml in Hanks' balanced salt solution containing 1.26 mM Ca^2+ and 0.81 mM Mg^2+ (HBSS, Gibco) with 5 mg/ml human serum albumin (HBSS/HSA). Adhesion assays are conducted in triplicate in 96-well microtiter plates, Corning, incubated at 4° C. overnight with 50 microliters of various protein solutions.
GMP-140 is plated at 5 micrograms/ml and the control proteins: human serum albumin (Alb), platelet glycoprotein IIb/IIIa (IIb), von Willebrand factor (vWF), fibrinogen (FIB), thrombomodulin (TM), gelatin (GEL) or human serum (HS), are added at 50 micrograms/ml. All wells are blocked for 2 h at 22° C. with 300 microliters HBSS containing 10 mg/ml HSA, then washed three times with HBSS containing 0.1% Tween-20 and once with HBSS. Cells (2×10^5 per well were added to the wells and incubated at 22° C. for 20 min. The wells were then filled with HBSS/HSA, sealed with acetate tape (Dynatech), and centrifuged inverted at 150 g for 5 min. After discarding nonadherent cells and supernates, the contents of each well are solubilized with 200 microliters 0.5% hexadecyltrimethylammonium bromide, Sigma, in 50 mM potassium phosphate, pH 6.0, and assayed for myeloperoxidase activity, Ley, et al., Blood 73, 1324-1330 (1989). The number of cells bound was derived from a standard curve of myeloperoxidase activity versus numbers of cells. Under all assay conditions, the cells released less than 5% of total myeloperoxidase and lactate dehydrogenase. Results are presented in Table I. 100% adhesion is that seen in the presence of the C-terminal peptide (amino acid residues 761-777 of GMP-140) as a negative control; this value is the same as controls in which neither peptide nor antibody is added to the cells. Inhibition is read as a lower percent adhesion, so that a value of 5% mean that 95% of the specific adhesion was inhibited.
Peptides from the lectin-like domain of GMP-140 were assayed for their ability to inhibit adhesion of neutrophils to immobilized GMP-140 in the assay described in example 1. Concentrations tested ranged from 0.1 mM to 1.5 mM.

GMP-140 [2] = molecular target: T1, GMP-140; assay: ELISA of binding of biotinylated monoclonal antibodies G1, G2, G3 to immobilized GMP-140 with soluble peptide; parameters: from tissue; host or cells: outdated human platelet packs (platelet lysate); settings: peptide 1.5 mM; for remaining activity at 1500 µM: 2 h
Experimental: Based on competitive ELISAs with the purified protein, G1, G2, and G3 each recognize distinct or only partially overlapping epitopes. 1.5 mM peptide was added to biotinylated mAb at a concentration of 2.5 micrograms/ml, which were then added to the wells containing GMP-140, as described in example 1. Binding was measured by an ELISA with an avidin detection system.
The monoclonal antibodies were biotinylated as follows: to 0.5 ml of purified IgG antibody (1 mg/ml in PBS, pH 7.4) was added 50 μl of 3.2 mM N-hydroxysuccinimide biotin in dimethyl sulfoxide and 50 μl of 1 M NaHCO3. After a 2 hour incubation at room temperature in the dark, the reaction was stopped with 50 μl of 1 M NH4 Cl. The biotinylated antibody was then separated from other components by gel filtration on a PD-10 column equilibrated in PBS. The ELISA was performed as follows; all steps were performed at room temperature.
Biotinylated antibody (2.5 μg/ml) with or without 1.5 mM peptide was incubated with wells coated with GMP-140 as described in example 1. After a 2 hour incubation, the antibody was removed, the wells were washed, and 0.1 ml of horseradish peroxidase-conjugated stepavidin (Pierce), diluted 1:1000 in HBSS/HSA, was added for 30 min. The wells were then washed and 0.1 ml of peroxidase substrate (Pierce) was added for 15 min. The color reaction was read at 405 nm.

human neutrophils = assay: Binding of 125I[GMP-140] to human neutrophils
Description: This receptor is believed to be a glycoprotein containing sialic acid and other oligosaccharides that are recognized by the lectin domain of GMP-140. Using the assay described in example 1, and an assay in which ^125 I[GMP-140] binds specifically, saturably and reversibly to human neutrophils, as described by Moore and McEver, Clin.Res. 38, 364A (1990), certain critical structural features of the ligand (or, perhaps more accurately, "counter-receptor") for GMP-140 on human neutrophils have been defined.

[3] = mAb G1 2.5 micrograms/ml, read-out: % Binding of Biotinylated MAbs G1
[4] = mAb G2 2.5 micrograms/ml, read-out: % Binding of Biotinylated MAbs G2
[5] = mAb G3 2.5 micrograms/ml, read-out: % Binding of Biotinylated MAbs G3

With KNNKTW [55-60] the “% Bound (neutrophils bound to immobilized GMP-140 in the presence of GMP-140-derived peptide)” value (“% Bound” for short) (GMP-140 [1]) was 70%.
For RYTDLVAIQ [22-30], the “% Bound” value (GMP-140 [1]) was 6%.
trypsin [reference compound] was tested, and the “adhesion of neutrophils to immobilized GMP-140 abolished” value (GMP-140 [1]; neutrophils treated with the protease) was “Greater than 70%”.
In the case of ADNEPNNKRNNED [77-89], the “% Bound” value (GMP-140 [1]) is reported as 68%.
CQNRYTDLVAIQ [19-30] was tested, and the “% Bound” value (GMP-140 [1]) was 12% and the “% Binding of Biotinylated MAbs G3” value (GMP-140 [2]; mAb G3 2.5 micrograms/ml) was 54%.
RKNNKT [54-59] was tested, and the “% Bound” value (GMP-140 [1]) was 86%.
In the case of PNNKRNNED [81-89], the “% Bound” value (GMP-140 [1]) is reported as 104%.
AENWADNEPNNKR [73-85] was tested, and the “% Bound” value (GMP-140 [1]) was 41%.
YTASCQDMS [LECTIN/EGF 118-126] showed a remaining activity at 1500 µM (GMP-140 [2]; [3]) of 92%, a remaining activity at 1500 µM (GMP-140 [2]; [4]) of 92% and a remaining activity at 1500 µM (GMP-140 [2]; [5]) of 104%.
For “CQDDGK [SECRETORY 720-721/762-765, reference compound]”, the remaining activity at 1500 µM (GMP-140 [2]; [3]) was 106%, the remaining activity at 1500 µM (GMP-140 [2]; [4]) was 99% and the remaining activity at 1500 µM (GMP-140 [2]; [5]) was 104%.
CQNRYTDLVAIQNKNE [19-34] was tested, and the “% Bound” value (GMP-140 [1]) was 5%, the “% Binding of Biotinylated MAbs G1” value (GMP-140 [2]; mAb G1 2.5 micrograms/ml) was 23% and the “% Binding of Biotinylated MAbs G2” value (GMP-140 [2]; mAb G2 2.5 micrograms/ml) was 26%. The “% Binding of Biotinylated MAbs G3” value (GMP-140 [2]; mAb G3 2.5 micrograms/ml) was 24%.
In the case of GTKKALTNE [64-72], the “% Bound” value (GMP-140 [1]) is reported as 92%.
For TWTWV [59-63], the “% Bound” value (GMP-140 [1]) was 102%.
For AENWADNE [73-80], the “% Bound” value (GMP-140 [1]) was 100%.
In the case of NKTWTWV [57-63], the “% Bound” value (GMP-140 [1]) is reported as 69%.
For “neuraminidase: neuraminidase purified from Vibrio cholera [reference compound]”, the “adhesion of neutrophils to immobilized GMP-140 after treatment of neutrophils (in words)” value (GMP-140 [1]; neutrophils treated with the enzyme) was “abolished” and the “binding of 125I[GMP-140] to human neutrophils (in words)” value (human neutrophils) was “abolished”.
For RKNNKTWTWVGTKKALTNE [54-72], the “% Bound” value (GMP-140 [1]) was 15%, the “% Binding of Biotinylated MAbs G1” value (GMP-140 [2]; mAb G1 2.5 micrograms/ml) was 106% and the “% Binding of Biotinylated MAbs G2” value (GMP-140 [2]; mAb G2 2.5 micrograms/ml) was 125%. For the same substance, the “% Binding of Biotinylated MAbs G3” value (GMP-140 [2]; mAb G3 2.5 micrograms/ml) was 104%.
For “KDDGKCPLNPHSHLGTY [C-TERMINUS 761-777, reference compound]”, the “% Bound” value (GMP-140 [1]) was 100%, the remaining activity at 1500 µM (GMP-140 [2]; [3]) was 100% and the remaining activity at 1500 µM (GMP-140 [2]; [4]) was 100%. It also gave a remaining activity at 1500 µM (GMP-140 [2]; [5]) of 100%.
With LETIGNYT [EGF 134-141] the remaining activity at 1500 µM (GMP-140 [2]; [3]) was 97%, the remaining activity at 1500 µM (GMP-140 [2]; [4]) was 104% and the remaining activity at 1500 µM (GMP-140 [2]; [5]) was 109%.
NNKTW [56-60] was tested, and the “% Bound” value (GMP-140 [1]) was 96%.
